Square brackets hold non-standard residues; d marks the D form. Ends that are not written are not given here. sY = N[C@@H](Cc1ccc(OS(=O)(=O)O)cc1)C(=O)O
The compounds below were run on conversion of stem cells into insulin producing cells. Conditions: not given.
Type: cell-based
With Cholera Toxin B Subunit the “effect on the conversion of stem cells into insulin producing cells” value (“effect on the conversion” for short) was “potential positive effect”.

Same assay, conditions: statistical analysis of insulin content of supernatants, 3 donors, combinatorial array in alginate
`CC[C@H](C)[C@@H]1NC(=O)[C@H](CCCNC(=N)N)NC(=O)[C@H](CC(=O)O)NC(=O)[C@H](CCSC)NC(=O)[C@H](CCCNC(=N)N)NC(=O)CNC(=O)CNC(=O)[C@H](Cc2ccccc2)NC(=O)[C@@H](NC(=O)[C@H](CO)NC(=O)[C@H](CO)NC(=O)[C@H](CCCNC(=N)N)NC(=O)[C@H](CCCNC(=N)N)NC(=O)[C@H](CC(C)C)NC(=O)[C@@H](N)CO)CSSC[C@@H](C(=O)N[C@@H](CC(N)=O)C(=O)N[C@@H](CO)C(=O)N[C@@H](Cc2ccccc2)C(=O)N[C@@H](CCCNC(=N)N)C(=O)N[C@@H](Cc2ccc(O)cc2)C(=O)O)NC(=O)CNC(=O)[C@H](CC(C)C)NC(=O)CNC(=O)[C@H](CO)NC(=O)[C@H](CCC(N)=O)NC(=O)[C@H](C)NC(=O)CNC1=O` [ANP] was tested, and the “effect on the conversion” value was “potential negative effect”.
With `C[C@]12C[C@H](O)[C@H]3[C@@H](CCC4=CC(=O)CC[C@@]43C)[C@@H]1CC[C@@H]2C(=O)CO` [Corticosterone] the “effect on the conversion” value was “potential positive effect”.
In the case of `CCCCCC(=O)c1c(O)c(Cl)c(OC)c(Cl)c1O` [DIF-1], the “effect on the conversion” value is reported as “potential negative effect”.
For `CN(C)C=O` [DMF, n-n-dimethylformamide], the “effect on the conversion” value was “potential positive effect”.
For `C[S+](C)[O-]` [DMSO, dimethyl sulfoxide], the “effect on the conversion” value was “potential positive effect”.
In the case of `NC(=O)c1cccnc1` [Nictotinamide, Nicotinamide], the “effect on the conversion” value is reported as “potential positive effect”.
In the case of `CC(=O)[C@H]1CC[C@H]2[C@@H]3CCC4=CC(=O)CC[C@]4(C)[C@H]3CC[C@]12C` [Progesterone], the “effect on the conversion” value is reported as “potential negative effect”.
For `NCCCCN` [Putrescine], the “effect on the conversion” value was “potential negative effect”.
With `N[C@@H](Cc1cc(I)c(Oc2ccc(O)c(I)c2)c(I)c1)C(=O)O` [T3, Triiodothyronine] the “effect on the conversion” value was “potential negative effect”.
`Cc1c(C)c2c(c(C)c1O)CCC(C)(C(=O)O)O2` (stereo not drawn) [Trolox] was tested, and the “effect on the conversion” value was “potential negative effect”.
`CCCC(=O)[O-].[Na+]` [n Butyric Acid] was tested, and the “effect on the conversion” value was “potential negative effect”.
“CCK8 amide: Cholecystokinin (CCK8-amide) (DYMGWMDF-NH2; ends and bridges not checked; UniProt P06307 96-103, looked up)” was tested, and the “effect on the conversion” value was “potential negative effect”.
In the case of “CCK8 sulfated: Cholecystokinin octapeptide, sulfated (D[sY]MGWMDF-NH2; ends and bridges not checked; UniProt P06307 96-103, looked up)”, the “effect on the conversion” value is reported as “potential positive effect”.
“CNP: A 22-amino acid peptide that is a member of the natriuretic peptide family (GLSKGCFGLKLDRIGSMSGLGC; ends and bridges not checked; cysteine pairing not given here; UniProt P23582 105-126, looked up)” was tested, and the “effect on the conversion” value was “potential positive effect”.
For Caerulein, the “effect on the conversion” value was “potential positive effect”.
For “EGF: epidermal growth factor (NSDSECPLSHDGYCLHDGVCMYIEALDKYACNCVVGYIGERCQYRDLKWWELR; UniProt P01133 971-1023, looked up)”, the “effect on the conversion” value was “potential positive effect”.
For “Endothelin 1: polypeptide consisting of 21 amino acid residues (CSCSSLMDKECVYFCHLDIIW; ends and bridges not checked; cysteine pairing not given here; UniProt P05305 53-73, looked up)”, the “effect on the conversion” value was “potential negative effect”.
With “Exendin 4: a long acting analog of GLP-1” the “effect on the conversion” value was “potential positive effect”.
With FGF-1: FGF acidic the “effect on the conversion” value was “potential positive effect”.
“FGF-2: fibroblast growth factor 2 (FGF-basic)” was tested, and the “effect on the conversion” value was “potential negative effect”.
For GH: growth hormone, the “effect on the conversion” value was “potential negative effect”.
In the case of “GLP-1: Glucagon like-peptide 1, (7-36) amide, human (HAEGTFTSDVSSYLEGQAAKEFIAWLVKGR-NH2; UniProt P01275 98-127, looked up)”, the “effect on the conversion” value is reported as “potential negative effect”.
With “GRP: Gastrin Releasing Peptide (VPLPAGGGTVLTKMYPRGNHWAVGHLM; ends and bridges not checked; UniProt P07492 24-50, looked up)” the “effect on the conversion” value was “potential positive effect”.
With HGF: hepatocyte growth factor the “effect on the conversion” value was “potential negative effect”.
For IGF-1: Insulin-like growth factor-I, the “effect on the conversion” value was “potential positive effect”.
For IGF-2: Insulin-like growth factor 2, the “effect on the conversion” value was “potential positive effect”.
For Insulin: Insulin as medium supplement, the “effect on the conversion” value was “potential positive effect”.
With LIF: leukemia inhibitory factor, human the “effect on the conversion” value was “potential negative effect”.
Laminin was tested, and the “effect on the conversion” value was “potential positive effect”.
For “Leu-Enkephalin: Natural opiate pentapeptide (YGGFL) (Leu-enkephalin; UniProt P01210 230-234, looked up)”, the “effect on the conversion” value was “potential positive effect”.
In the case of Met-Enkephalin, the “effect on the conversion” value is reported as “potential positive effect”.
With NGF beta: Nerve growth factor the “effect on the conversion” value was “potential positive effect”.
For “Substance P: neuropeptide, full length (RPKPQQFFGLM; ends and bridges not checked; UniProt P20366 58-68, looked up)”, the “effect on the conversion” value was “potential positive effect”.
“TGF alpha: Transforming growth factor alpha” was tested, and the “effect on the conversion” value was “potential negative effect”.
With “TGF beta 1: Transforming growth factor beta 1” the “effect on the conversion” value was “potential negative effect”.
For “Transferrin: a beta globulin in blood plasma capable of combining with ferric ions”, the “effect on the conversion” value was “potential positive effect”.
With “VIP: Vasoactive Intestinal Peptide (HSDAVFTDNYTRLRKQMAVKKYLNSILN; ends and bridges not checked; UniProt P01282 125-152, looked up)” the “effect on the conversion” value was “potential positive effect”.
In the case of vEGF, the “effect on the conversion” value is reported as “potential positive effect”.

Reference: patent US20040259244A1, “Methods, compositions, and growth and differentiation factors for insulin-producing cells” (priority 2002, published 2004)
